The subject of data set [1] is L. infantum axenic amastigotes. The experiment in a line: In vitro antileishmanial evaluation on axenic amastigotes (resazurin viability). Format: cell-based, Leishmania infantum. Conditions: 72 h incubation then resazurin 24 h, triplicate, three independent experiments, read-out: L. infantum Axenic Amastigotes IC50 (µM) ± S.D. As for the experimental part:
Cultures of axenic amastigotes of L. infantum were adapted from. Briefly, axenic amastigotes of L. infantum were obtained from late log promastigotes diluted at 1 × 10^6/mL in M199 complete medium acidified at pH 5.5 and cultured at 37 °C with 5% CO2.
The evaluations of activity on axenic amastigotes were adapted from the protocols previously described. […] Cell viability was then monitored as described above. The activity of the compounds was expressed as IC50, which was determined by nonlinear regression using GraphPad Prism 7.0.

Data set [2] relates to L. infantum intramacrophagic amastigotes. The experiment in a line: In vitro antileishmanial evaluation on intramacrophage amastigotes in RAW264.7 macrophages (Giemsa counting). Format: cell-based, Leishmania infantum. The following applies: infected RAW264.7 macrophages, 48 h of treatment, amastigotes per macrophage counted, read-out: L. infantum Intramacrophagic Amastigotes IC50 (µM) ± S.D. As for the experimental part: Promastigotes of Leishmania infantum (MHOM/FR/2008/LEM5700) were cultured in the dark at 26 °C with 5% CO2 in M199 complete medium containing M199 medium supplemented with adenosine (100 µM), hemin (0.5 mg/L), Hepes (40 mM) pH 7.4, and heat-inactivated fetal bovine serum (10%; HIFBS). Cultures of axenic amastigotes of L. infantum were adapted from. Briefly, axenic amastigotes of L. infantum were obtained from late log promastigotes diluted at 1 × 10^6/mL in M199 complete medium acidified at pH 5.5 and cultured at 37 °C with 5% CO2.
(§1) The RAW 264.7 macrophages (ATCC) were cultured at 37 °C with 5% CO2 in DMEM complete medium containing Dulbecco’s Modified Eagle’s Medium (DMEM, Invitrogen, Thermo-Fisher, Villebon-sur-Yvette, France) supplemented with penicillin-streptomycin (100 U/mL; Invitrogen) and heat-inactivated fetal bovine serum (10%; HIFBS).
Concerning the evaluation on intramacrophage amastigotes, the determination of the cytotoxicity as presented above was necessary to use the highest drug concentrations to be studied on the intramacrophage amastigote model. The evaluation on the intracellular form on the parasite was performed as previously described. RAW264.7 macrophages were plated in 16-well Lab-Tek chamber slides (Thermo-Fisher Villebon-sur-Yvette, France) at a density of 2 × 10^4 cells per well and incubated for 24 h at 37 °C with 5% CO2. Axenic amastigotes were differentiated as described above, centrifuged at 2000× g for 10 min, resuspended in DMEM complete medium, and added to each well to reach a 16:1 parasite to macrophage ratio. After 24 h of infection at 37 °C with 5% CO2, extracellular parasites were removed, and DMEM complete medium (100 µL) containing two-fold serial dilutions of the compounds, from 100 µM to 0.049 µM, was added to each well. A positive control treated with 1% DMSO was added to each Lab-tek chamber slide. After 48 h of treatment, the medium was removed and cells were fixed in methanol for 1 min, stained in 10% Giemsa (Merck, Guyancourt, France) for 5 min, and further rinsed in water before observation in phase contrast at the microscope (Olympus CX31; Olympus, Rungis, France). The number of amastigotes was counted by two independent experimenters for a total of 300 macrophages per well and the ratio of amastigotes per macrophage was determined for each condition. This ratio was further compared with the one of the positive controls, considered as 100%, to determine a percentage of inhibition (% I), as follows: % I = 100 − [(ratio of amastigotes per macrophage in treated cells/ratio of amastigotes per macrophages in untreated cells) × 100]. The activity of the compounds was expressed as IC50, which was determined by nonlinear regression using GraphPad Prism 7.0. […] In vitro antileishmanial evaluations were performed in triplicate in three independent experiments.

For another data set, the system named is RAW 264.7 macrophages. The experiment in a line: In vitro cytotoxicity on RAW 264.7 macrophages (resazurin). The data set is classed as cell-based. The following applies: 48 h of incubation, read-out: Cytotoxicity on RAW 264.7 CC50 (µM) ± S.D. As for the experimental part:
as §1
Cells were plated in 96-well microplates at a density of 2 × 10^4 cells per well. […] In living cells, resazurin is reduced in resorufin, and this conversion is monitored by measuring OD570nm (resorufin) and OD600nm (resazurin; multimode microplate reader Spark®, Tecan, Lyon, France). […] In vitro cytotoxicity assays were performed in triplicate in three independent experiments.

Read-outs that look alike come from different tables or passages of the source.

By IC50 is commonly meant the midpoint of a concentration-inhibition curve. As a reminder, the CC50 is the concentration at which the toxic effect on the cells reaches its halfway point.

Take `Cn1c(=O)c2c(c3ccccc31)OC(C)(C)C1CCC(C)(O)C(Cl)C21` (stereo not shown) [Compound 3, Chloroaustralasine A]: the results for the IC50 in data set [1], in data set [1] (Leishmania infantum) and in data set [2] (Leishmania infantum) were 8.1 ± 1.4 µM, 8 µM and over 50 µM, respectively.

In the case of `CC1(O)CCC2C(c3c(c4ccccc4[nH]c3=O)OC2(C)C)C1Cl` (stereo not shown) [Compound 4], the figures for the IC50 in data set [1] (Leishmania infantum) and in data set [2] (Leishmania infantum) were 18.6 ± 2.5 µM and over 6.25 µM, respectively.

For the molecule `Cn1c(=O)c2c(c3ccccc31)OC1(C)CCCC(C)(C)C1=C2` (stereo not shown) [Compound 11, 5,8,8,11a-Tetramethyl-5,8,9,10,11,11a-hexahydro-6H-chromeno [3,2-c]quinolin-6-one], the IC50 in data set [1] (Leishmania infantum) is over 100 µM; in data set [2] (Leishmania infantum), 14.7 ± 1.6 µM.

Turning to `Cn1c(=O)c2c(c3ccccc31)OC1(C)CCC3C1C2C3(C)C` (stereo not shown) [Compound 12, 1,1,3a,9-Tetramethyl-1,1a,1a1,2,3,3a,9,10b-octahydro-10H-4-oxa-9-azacyclobuta [7,1]indeno [5,6-a]naphthalen-10-one], the IC50 in data set [1] (Leishmania infantum) was 42.6 ± 2.1 µM; in data set [2] (Leishmania infantum), over 50 µM.

As to `CC(C)=CCCC1(C)C=Cc2c(c3ccccc3[nH]c2=O)O1` (stereo not shown) [Compound 14, 2-Methyl-2-(4-methylpent-3-en-1-yl)-2,6-dihydro-5H-pyrano [3,2-c]quinolin-5-one], the IC50 is 15.6 ± 1.8 µM in data set [1] (Leishmania infantum) and over 100 µM in data set [2] (Leishmania infantum).

On to `CC(C)=CCCC1(C)C=Cc2c(c3ccccc3n(Cc3ccccc3)c2=O)O1` (stereo not shown) [Compound 15a, 6-Benzyl-2-methyl-2-(4-methylpent-3-en-1-yl)-2,6-dihydro-5H-pyrano [3,2-c]quinolin-5-one], for which the results for the IC50 in data set [1] (Leishmania infantum) and in data set [2] (Leishmania infantum) were 16.8 ± 1.8 µM and 23.7 ± 6.5 µM, respectively.

Turning to `COc1cccc(Cn2c(=O)c3c(c4ccccc42)OC(C)(CCC=C(C)C)C=C3)c1` (stereo not shown) [Compound 15b, 6-(3-Methoxybenzyl)-2-methyl-2-(4-methylpent-3-en-1-yl)-2,6-dihydro-5H-pyrano [3,2-c]quinolin-5-one], the IC50 in data set [1] (Leishmania infantum) was 15 ± 1.7 µM; in data set [2] (Leishmania infantum), over 25 µM.

On to `CC(C)=CCCC1(C)C=Cc2c(c3ccccc3n(Cc3ccccn3)c2=O)O1` (stereo not shown) [Compound 15c, 2-Methyl-2-(4-methylpent-3-en-1-yl)-6-(pyridin-2-ylmethyl)-2,6-dihydro-5H-pyrano [3,2-c]quinolin-5-one], for which the IC50 was 14.2 ± 4.3 µM in data set [1] (Leishmania infantum) and over 25 µM in data set [2] (Leishmania infantum).

Turning to `COCCn1c(=O)c2c(c3ccccc31)OC(C)(CCC=C(C)C)C=C2` (stereo not shown) [Compound 15d, 6-(2-Methoxyethyl)-2-methyl-2-(4-methylpent-3-en-1-yl)-2,6-dihydro-5H-pyrano [3,2-c]quinolin-5-one], the IC50 in data set [1] (Leishmania infantum) was 17.8 ± 2.3 µM; in data set [2] (Leishmania infantum), over 25 µM.

Take `CC(C)=CCCC1(C)C=Cc2c(c3ccccc3n(CCc3ccccc3)c2=O)O1` (stereo not shown) [Compound 15f, 2-Methyl-2-(4-methylpent-3-en-1-yl)-6-phenethyl-2,6-dihydro-5H-pyrano [3,2-c]quinolin-5-one]: the IC50 in data set [1] (Leishmania infantum) was 9.8 ± 2.9 µM; in data set [2] (Leishmania infantum), over 50 µM.

Regarding `CCCCCn1c(=O)c2c(c3ccccc31)OC(C)(CCC=C(C)C)C=C2` (stereo not shown) [Compound 15g, 2-Methyl-2-(4-methylpent-3-en-1-yl)-6-pentyl-2,6-dihydro-5H-pyrano [3,2-c]quinolin-5-one], the concentration for half-maximal inhibition (IC50) turned out to be 82.7 ± 6.5 µM in data set [1] (Leishmania infantum) and 29.5 ± 9.9 µM in data set [2] (Leishmania infantum). Besides, in the data set on RAW 264.7 macrophages, the CC50 is over 100 µM.

On to `CC(C)=CCCC1(C)C=Cc2c(c3ccccc3n(S(=O)(=O)c3ccccc3)c2=O)O1` (stereo not shown) [Compound 15h, 2-Methyl-2-(4-methylpent-3-en-1-yl)-6-(phenylsulfonyl)-2,6-dihydro-5H-pyrano [3,2-c]quinolin-5-one], for which the IC50 in data set [1] (Leishmania infantum) and in data set [2] (Leishmania infantum) was over 100 µM throughout.

As to `CC(C)=CCCC1(C)C=Cc2c(c3ccccc3n(C(=O)Oc3ccccc3)c2=O)O1` (stereo not shown) [Compound 15i, Phenyl 2-methyl-2-(4-methylpent-3-en-1-yl)-5-oxo-2H-pyrano [3,2-c]quinoline-6(5H)-carboxylate], the half-maximal inhibitory concentration (IC50) in data set [1] (Leishmania infantum) is 12.9 ± 3.2 µM; in data set [2] (Leishmania infantum), over 15 µM.

Consider `CC(C)=CCCC1(C)C=Cc2c(c3ccccc3n(C(=O)OC(C)(C)C)c2=O)O1` (stereo not shown) [Compound 15j, tert-Butyl 2-methyl-2-(4-methylpent-3-en-1-yl)-5-oxo-2H-pyrano [3,2-c]quinoline-6(5H)-carboxylate], for which the IC50 in data set [1] (Leishmania infantum) is 9.1 ± 0.4 µM; in data set [2] (Leishmania infantum), over 25 µM.

`COC(=O)CCCCn1c(=O)c2c(c3ccccc31)OC(C)(CCC=C(C)C)C=C2` (stereo not shown) [Compound 15k, Methyl 5-(2-methyl-2-(4-methylpent-3-en-1-yl)-5-oxo-2H-pyrano [3,2-c]quinolin-6(5H)-yl)pentanoate]: the IC50 is 14.6 ± 2.1 µM in data set [1] (Leishmania infantum) and 19 ± 2.2 µM in data set [2] (Leishmania infantum).

In the case of `CC(C)=CCCC1(C)C=Cc2c(c3ccccc3n(CCCCC(=O)O)c2=O)O1` (stereo not shown) [Compound 15l, 5-(2-Methyl-2-(4-methylpent-3-en-1-yl)-5-oxo-2H-pyrano [3,2-c]quinolin-6(5H)-yl)pentanoic acid], the IC50 in data set [1] (Leishmania infantum) was 16.4 ± 1.7 µM; in data set [2] (Leishmania infantum) it was over 100 µM.

As to `CC1(C)CCCC2(C)Oc3c(c(=O)n(Cc4ccccc4)c4ccccc34)C=C12` (stereo not shown) [Compound 16a, 5-Benzyl-8,8,11a-trimethyl-5,8,9,10,11,11a-hexahydro-6H-chromeno [3,2-c]quinolin-6-one], the IC50 was 7 ± 2.1 µM in data set [1] (Leishmania infantum) and over 25 µM in data set [2] (Leishmania infantum).

For `CCCCCCCCCCCCCCCCOP(=O)([O-])OCC[N+](C)(C)C` [Miltefosine, reference compound], the IC50 was found to be 1 ± 0.3 µM in data set [1] (Leishmania infantum) and 6.7 ± 1.7 µM in data set [2] (Leishmania infantum).

For the molecule Zanthosimuline [Compound 7], the IC50 in data set [1] is 29.1 ± 1 µM; in data set [2], over 100 µM.

These data come from article PMC9693141 (Molecules, 2022).
